We go through 1 compound from US9757330B2, “Recipe for in-situ gel, and implant, drug delivery system formed thereby” (INDUSTRIAL TECHNOLOGY RESEARCH INSTITUTE, priority 2013, dated 2017).

This data set can be described thus: in-vitro release of risperidone from the in-situ hydrogel into PBS. To be noted: agarose/urea in-situ hydrogel, Millicell insert in 7.5 ml PBS, HPLC, on the 28 day. Type of data set: physicochemical. On the procedure:
800 μl of the stock solution was mixed with 200 μl of DI water containing dispersed risperidone (20 mg/ml). Then, 150 μl of the solution was added into 12-well Millicells and immersed the insert into 7.5 ml of PBS. The PBS solution was taken out at designated time point and replaced with fresh PBS. The concentration of risperidone was measured via HPLC. The release profile of risperidone from the in-situ hydrogel reached 86% on the 28 day (FIG. 2).

Each structure is given as a SMILES string.

As to `Cc1nc2n(c(=O)c1CCN1CCC(c3noc4cc(F)ccc34)CC1)CCCC2` [risperidone], the “release of risperidone from the in-situ hydrogel” value was 86%.
